{"source": "patent US7192607B2", "about": "“Formulations for the prevention or the treatment of diseases affecting mucosae or skin, or for pregnancy prevention, and an applicator for the delivery of topical formulations into mucosal cavities” (Infectio Recherche Inc, priority 2002, dated 2007)", "key": {"HSV-2 (6)": {"system": "HSV-2 (6)", "assay": "Infectivity of HSV-2 (6), acyclovir-resistant strain, pretreated with SLS on Vero cells (PFU)", "assay_type": "cell-based, Herpes simplex virus type-2", "method": "(§1) The effect of pretreating different strains of herpes viruses with SLS or DS on their viral infectivities to susceptible cells has been evaluated. In brief, cells were seeded in 24 well-plates (Costar, Montreal, QC, Canada). Prior to infection, the virus was either suspended in culture medium or phosphate buffered saline (PBS), or incubated with different concentrations of SLS in PBS for 1 h at 37° C. At confluency, cells were incubated with viral suspensions by centrifuging the plates (750× g for 45 min at 20° C.) to allow virus adsorption. Virus was removed and cell sheets were then overlaid with 0.5 ml of 0.6% agarose Seaplaque (Marine Colloids, Rockland, Md.) prepared in appropriate culture medium. The plates were incubated for 2 days at 37° C. Cells were then fixed with 10% formaldehyde in PBS for 20 min, washed with deionized water and stained with 0.05% methylene blue. Viral infectivity was evaluated via the determination of Plaque Forming Units (PFU)."}, "[1]": {"system": "glycoprotein D gene of HSV-1 (strain F)", "assay": "Quantification of HSV glycoprotein D gene in Vero cells infected with pretreated virus (hybridization, densitometry)", "assay_type": "cell-based, Herpes simplex virus type-1", "conditions": "48 h infection", "method": "The quantification of the glycoprotein D gene of HSV-1 (strain F) pretreated with SLS was also evaluated in Vero cells in order to determine the presence of viral DNA in the infected cells. In brief, HSV-1 (strain F) was pretreated with varying SLS concentrations (12.5, 25, 50, 75 and 100 μM) in EMEM +2% FBS for 1 h at 37° C. Vero cells (80–90% confluent) were infected with the virus (100 PFU/ml in 20 ml) for 48 h at 37° C. in a 5% CO2 atmosphere. The culture medium was removed and cell sheet was washed twice with 1× HBSS. Cells were scrapped off from the dishes and resuspended in EMEM +2% FBS. Total DNA was extracted using a standard phenol/chloroform procedure. Quantitation of total DNA was achieved using the Burton procedure. The probe used for this study corresponds to a part of glycoprotein D of HSV-2 (strain 333), generated by PCR using the following primers: • P1 (5′-[…]-3′) and • P2 (5′-[…]-3′) and was [^32P]-labeled by random priming. Hybridization was performed at 65° C. in 0.25 M Na2HPO4 (pH 6.8 with orthophosphoric acid) and 7% SDS. Washes were done in 40 mM Na2HPO4 (pH 6.8 with orthophosphoric acid) and 1% SDS for 20 min at 65° C. followed by 20 min at 25° C.\nFollowing a 48 h incubation, cells were collected and total DNA was extracted. […] Quantitative measurements of HSV-1 DNA levels obtained by scanning densitometry of the autoradiogram were similar (Panel B)."}, "Vero cells": {"system": "Vero cells", "assay": "Viability of Vero cells exposed to SLS or DS (MTS test)", "conditions": "Vero cells exposed 1 h at 37° C. to concentrations as in FIG. 1 and Table 1; data not shown"}, "HSV-1 (strain F) [2]": {"system": "HSV-1 (strain F)", "assay": "Efficacy of SLS or DS added in overlay after infection against HSV-1 (strain F) in Vero cells (PFU)", "assay_type": "cell-based, Herpes simplex virus type-1", "conditions": "cells infected 2 h, compound in overlay for 2 days, FIG. 2", "method": "In brief, cells were infected with the virus for 2 h at 37° C. Afterwards, supernatant was removed and cells were overlaid with 0.5 ml of EMEM +2% FBS containing 0.6% agarose Seaplaque and SLS or DS at the desired concentration. Plates were then incubated for 2 days at 37° C. in a 5% CO2 atmosphere. Cells were fixed with 10% formaldehyde in PBS for 20 min, washed with deionized water and stained with 0.05% methylene blue. Viral infectivity was evaluated following the determination of PFU."}, "[3]": {"system": "rabbit, bovine and human papillomaviruses", "conditions": "brief treatment with low concentrations; Howett et al., 1999; cited from earlier work"}, "HSV-2 (strain 22)": {"system": "HSV-2 (strain 22)", "assay": "Murine intranasal infection model, HSV-2 pretreated with SLS", "assay_type": "in vivo, Balb/c mice", "method": "The effect of pretreating HSV-2 (strain 22) with SLS on viral infectivity has also been evaluated in a murine intranasal infection model. In brief, female Balb/c mice (Charles River Breeding Laboratories Inc., St-Constant, QC, Canada) 4 weeks-old were used throughout this study. Prior to the infection, HSV-2 (strain 22) was incubated for 1 h at 37° C. with PBS or with different concentrations of SLS (6.25, 25 or 100 μM) to reach a final viral inoculum of 2,000 PFU/20 μl. Mice were slightly anesthetized using Aerrane® (Isoflurane, USP; Janssen, North York, ON, Canada) and viral suspension (20 μl total volume) was applied into the external left nare of mice. Mice were then returned to their cages and survival was evaluated daily."}, "HSV-2 (15589)": {"system": "HSV-2 (15589)", "assay": "Infectivity of HSV-2 (15589), foscarnet-resistant strain, pretreated with SLS on Vero cells (PFU)", "assay_type": "cell-based, Herpes simplex virus type-2", "method": "as §1"}, "HSV-1 (strain F) [4]": {"system": "HSV-1 (strain F)", "assay": "Infectivity of HSV-1 (strain F) to Vero cells after treatment with SLS or DS (plaque forming units)", "assay_type": "cell-based, Herpes simplex virus type-1", "conditions": "Vero cells preincubated 1 h at 37° C. with 6.25 to 100 μM SLS prior to infection; data not shown"}, "HSV-1 (strain F) [5]": {"system": "HSV-1 (strain F)", "assay": "Infectivity of HSV-1 (strain F) to Vero cells after treatment with SLS or DS (plaque forming units)", "assay_type": "cell-based, Herpes simplex virus type-1", "conditions": "for IC50: Human alphaherpesvirus 1, Vero, FIG. 1, read-out: concentration giving a loss of 50% of the viral infectivity", "method": "as §1\nHSV-1 (strain F) infectivity was reduced to 21% when viral particles were pretreated with 25 μM SLS. The infectivities of all HSV-2 strains were between 50 to 70% following preincubation with 25 μM SLS. A complete loss of the infectivity of all strains tested were obtained following pretreatment of the viruses with 50 μM SLS.\nWhen SLS was immediately added to Vero cells following their infection, the loss of viral infectivity was less dramatic compared to that obtained for virus pretreated for 1 h at 37° C. with the same SLS concentrations. […] Similarly, pretreatment of the HSV-2 (strain 333) with SLS also influenced the infectivity of this strain (data not shown). On the other hand, DS reduces the infectivity of the virus independent of whether the virus was pretreated with DS."}, "[6]": {"conditions": "virus pretreated with 6.25 μM SLS for 1 hour at 37° C."}, "[7]": {"conditions": "virus pretreated with 12.5 μM SLS for 1 hour at 37° C."}, "[8]": {"conditions": "virus pretreated with 25 μM SLS for 1 hour at 37° C."}, "[9]": {"conditions": "virus pretreated with 50 μM SLS for 1 hour at 37° C."}, "[10]": {"conditions": "viral suspension pretreated with 100 μM SLS"}}, "note": "Where “and” joins values, the source holds several entries; their conditions need not be identical. Equal entries are not always repeated. Where two headings read alike, the source gives them in different places.", "data": [{"smiles": "CCCCCCCCCCCCOS(=O)(=O)[O-].[Na+]", "note": "[SLS, Sodium lauryl sulfate]", "values": [{"measurement": "PFU (% of control) for HSV-2 (6)", "setting": "HSV-2 (6); [6]", "result": "105.3 ± 12.4 % of control"}, {"measurement": "PFU (% of control) for HSV-2 (6)", "setting": "HSV-2 (6); [7]", "result": "82.1 ± 40.7 % of control"}, {"measurement": "PFU (% of control) for HSV-2 (6)", "setting": "HSV-2 (6); [8]", "result": "51.1 ± 30.1 % of control"}, {"measurement": "PFU (% of control) for HSV-2 (6)", "setting": "HSV-2 (6); [9]", "result": "0 % of control"}, {"measurement": "HSV-1 DNA levels (glycoprotein D gene)", "setting": "[1]; virus pretreated with 75 μM SLS for 1 h at 37° C.", "result": "65.1 % of control values"}, {"measurement": "HSV-1 DNA levels (glycoprotein D gene)", "setting": "[1]; virus pretreated with 100 μM SLS for 1 h at 37° C.", "result": "34.9 % of control values"}, {"measurement": "expression of the glycoprotein D gene compared to control", "setting": "[1]; virus pretreated with 12.5, 25 and 50 μM SLS for 1 h at 37° C.", "result": "No major modification"}, {"measurement": "cytotoxicity (viability, MTS test)", "setting": "Vero cells", "result": "No signs of cytotoxicity"}, {"measurement": "concentration with complete efficacy against viral replication", "setting": "HSV-1 (strain F) [2]", "result": 100, "unit": "µM"}, {"measurement": "effect against rabbit, bovine and human papillomaviruses (non-enveloped viruses)", "setting": "[3]", "result": "effective"}, {"measurement": "mice that survived the infection", "setting": "HSV-2 (strain 22); viral inoculum pretreated with 6.25 μM SLS", "result": 67, "unit": "%"}, {"measurement": "mice that survived the infection", "setting": "HSV-2 (strain 22); viral inoculum pretreated with 25 μM SLS", "result": 67, "unit": "%"}, {"measurement": "mice that survived the infection", "setting": "HSV-2 (strain 22); [10]", "result": "all"}, {"measurement": "signs of illness", "setting": "HSV-2 (strain 22); [10]", "result": "did not demonstrate any sign of illness"}, {"measurement": "PFU (% of control) for HSV-2 (15589)", "setting": "HSV-2 (15589); [6]", "result": "108.7 ± 22.2 % of control"}, {"measurement": "PFU (% of control) for HSV-2 (15589)", "setting": "HSV-2 (15589); [7]", "result": "115.1 ± 17.5 % of control"}, {"measurement": "PFU (% of control) for HSV-2 (15589)", "setting": "HSV-2 (15589); [8]", "result": "59.0 ± 4.0 % of control"}, {"measurement": "PFU (% of control) for HSV-2 (15589)", "setting": "HSV-2 (15589); [9]", "result": "0 % of control"}, {"measurement": "infectivity of HSV-1 (strain F) after preincubation of Vero cells (not virus) with SLS", "setting": "HSV-1 (strain F) [4]", "result": "did not result in a loss of infectivity"}, {"measurement": "inhibition of viral infectivity", "setting": "HSV-1 (strain F) [5]; 100 μM SLS without pretreatment", "result": "not complete"}, {"measurement": "IC50", "setting": "HSV-1 (strain F) [5]; virus not pretreated (added without pretreatment)", "result": 75, "unit": "µM"}, {"measurement": "IC50", "setting": "HSV-1 (strain F) [5]; virus pretreated for 1 h at 37° C.", "result": 20, "unit": "µM"}, {"measurement": "inhibition of viral infectivity", "setting": "HSV-1 (strain F) [5]; preincubation of virus with 50 μM SLS", "result": "complete inhibition"}, {"measurement": "PFU (% of control) for HSV-1 (F)", "setting": "HSV-1 (strain F) [5]; [6]", "result": "101.1 ± 7.0 % of control"}, {"measurement": "PFU (% of control) for HSV-1 (F)", "setting": "HSV-1 (strain F) [5]; [7]", "result": "79.2 ± 36.4 % of control"}, {"measurement": "PFU (% of control) for HSV-1 (F)", "setting": "HSV-1 (strain F) [5]; virus pretreated with 25 μM SLS for 1 hour at 37° C., sulfate", "result": "21 % of control and 21.2 ± 18.0 % of control"}, {"measurement": "PFU (% of control) for HSV-1 (F)", "setting": "HSV-1 (strain F) [5]; [9]", "result": "0 % of control"}]}]}
